Square brackets hold non-standard residues; d marks the D form. Peptide text beside a SMILES is read from it. * marks the point of attachment. X2 = O=C(NCCN1C(=O)CC(*)C1=O)c1ccc(C(=O)O)c(-c2c3ccc(=O)cc-3oc3cc(O)ccc23)c1; X1 = O=C(O)c1ccc(C(=O)*)cc1-c1c2ccc(=O)cc-2oc2cc(O)ccc12
Experiments:
[1] = system: splanchic nerve; assay: In vivo fluorescence imaging of splanchnic nerve (FIG. 4); settings: FIG. 4, mouse, fluorescence versus reflected light images
Excerpt: (§1) Nerves are more clearly visualized utilizing NDM-38.

[2] = system: dorsal subcutaneous cervical or thoracic nerves; assay: In vivo fluorescence imaging of dorsal subcutaneous cervical and thoracic nerves (FIG. 2, FIG. 3); set-up: species or system mouse; settings: FIG. 2 and FIG. 3, fluorescence versus reflected light images
Excerpt: as §1

[3] = system: sciatic nerve; assay: Fluorescence contrast in murine nerves: in vivo imaging of sciatic nerve after intravenous injection; set-up: species or system mouse; settings: for N/B contrast compared to the equivalent NDMs comprising L-amino acids / N/S contrast compared to the equivalent NDMs comprising L-amino acids: retro-inverso (D-amino acids) versus NDM-39, NDM-41
Protocol: The visualization contrast activity of fluorescent peptides for nerve imaging was assessed using male immunocompetent hairless SKH1-E mice purchased from Charles River (Charles River, Wilmington, Mass. 01887, USA). SKH1-E mice weighing 25-30 grams were housed in group of 4 in individually ventilated IVC disposable cages (Innovive, Inc., San Diego, Calif. 92121, USA) and maintained under controlled environmental conditions (12-h/12-h light/dark cycle; temperature of 64-79F and relative humidity of 30-70%) for at least 5 days before experimental use. Animals had free access to standard laboratory rodent diet (Cat. #2018, Teklad Global 18% Protein Rodent Diet; Harlan Laboratories, Inc. Indianapolis, Ind. 46250, USA) and acidified drinking water throughout the course of study. All experiments were carried out under Institutional Animal Care and Use Committee (IACUC) approved protocol.
On the day of study, each involved mouse was weighed, examined for general condition and restrained using a rotating tail injector (Cat. #RTI, Braintree Scientific, Braintree, Mass. 021585, USA) for intravenous (tail vein) injection of test compound in conscious animal. The test compounds were tested (25-150 nmol in 0.1 mL/mouse) was then injected intravenously in mouse using a 28G1/2 Insulin syringe (Cat. #14-826-79, Becton Dickinson and Company, Franklin Lakes, N.J. 07417, USA). After the intravenous injection, each involved mouse was housed back in its assigned cage and kept under controlled environmental conditions before being examined for fluorescence labeling of the sciatic nerve.
Two hours after the intravenous injection, each involved mouse was terminally anesthetized with a mixture of ketamine HCl (Zetamine™, 100 mg/mL, ANADA 200-055 approved by FDA, NDC-13985-702-10; VETone®, Boise, Id. 83705, USA) and xylazine (Rompun™, 100 mg/mL, NADA-047-956 approved by FDA, Bayer HealthCare, LLC, Animal Health Divison, KS 66201, USA) which consisted of a combination of 100 mg/kg of ketamine with 10 mg/kg of xylazine administered intraperitoneally. The terminally anesthetized mouse was transferred on the piece of cork (4×4 inches, Quartet®, ACCO Brands, Lincolnshire, Ill. 60069, USA) for blunt dissection of sciatic nerve after checking the toe pinch reflex. The sciatic nerve was exposed by removing skin from the dorsal surface of the thigh and blunt dissecting the muscles parallel and posterior to the femur after checking […] (no reflex to toe pinch) in terminally anesthetized mouse. Full body imaging of the terminally anesthetized mouse with both sciatic nerves exposed was then performed using a computerized UVP BioSpectrum® 500 Imaging System fitted with appropriate excitation/emission filters for fluorescein, Cy5, or other dye detection and a VisionWorks® LS Software (UVP-BioSpectrum Imaging System, Upland, Calif., USA) for image acquisition and analysis. After the mouse full body imaging, the exposed and saline moisturized sciatic nerves were subsequently imaged using computerized fluorescence stereomicroscope (SZX 10, Olympus Optical, CO, LTD, Japan) interfaced with PictureFrame™, an image processing application suitable for image acquisition and analysis (Optronics, Goleta, Calif. 93117) or an in-house built Microscope Imaging System interfaced with Spot Software 5.0 (SPOT Imaging Solutions, Sterling Heights, Mich. 48314) for image acquisition and analysis. All above-mentioned Imaging Systems were equipped with appropriate excitation/emission filters for fluorescein, Cy5, or other dye detection. Following the imaging session, all captured images of fluorescently labeled sciatic nerves were examined and analyzed using the image processing program Image J to generate quantitative fluorescence data. For each involved mouse, fluorescence intensity of each examined sciatic nerve was acquired by drawing an area on the surface of the exposed sciatic nerve using Image J features and capabilities. […]

[4] = system: renal nerve; assay: In vivo fluorescence imaging of renal nerve (FIG. 5); set-up: species or system mouse; settings: FIG. 5, fluorescence versus reflected light images

SMILES	fluorescence contrast (nerve/background) of splanchic nerve [1]	fluorescence contrast (nerve/background) of mouse dorsal subcutaneous cervical or thoracic nerves [2]	N/B contrast relative to NDMs with glycine linkers ([3]; alanine linker versus NDM-44)	N/S contrast relative to NDMs with glycine linkers ([3]; alanine linker versus NDM-44)	N/B contrast compared to the equivalent NDMs comprising L-amino acids [3]	N/S contrast compared to the equivalent NDMs comprising L-amino acids [3]	fluorescence contrast (nerve/background) of mouse renal nerve [4]	fluorescence contrast (nerve/background) of mouse sciatic nerve ([3]; FIG. 1, fluorescence versus reflected light images)
CC(=O)N[C@H](CCCCNC(=O)c1ccc(C(=O)O)c(-c2c3ccc(=O)cc-3oc3cc(O)ccc23)c1)C(=O)N[C@H](C)C(=O)N[C@H](C)C(=O)N[C@H](C)C(=O)N[C@@H](C(=O)N[C@H](Cc1c[nH]cn1)C(=O)N[C@H](CCC(=O)O)C(N)=O)[C@H](C)O [NDM-38, Ac-[D-Lys(6FAM)]-(D-Ala)-(D-Ala)-(D-Ala)-(D-Thr)-(D-His)-(D-Glu)-NH2] (Ac-[dK](X1)[dA][dA][dA][dT][dH][dE]-NH2)	very high fluorescence contrast	very high fluorescence contrast	higher	higher	substantially higher	substantially higher	very high fluorescence contrast	–
CC(=O)N[C@H](CSC1CC(=O)N(CCNC(=O)c2ccc(C(=O)O)c(-c3c4ccc(=O)cc-4oc4cc(O)ccc34)c2)C1=O)C(=O)N[C@H](C)C(=O)N[C@H](C)C(=O)N[C@H](C)C(=O)N[C@@H](C(=O)N[C@H](Cc1c[nH]cn1)C(=O)N[C@H](CCC(=O)O)C(N)=O)[C@H](C)O (stereo partly drawn) [NDM-40, Ac-[D-Cys(6FAM)]-(D-Ala)-(D-Ala)-(D-Ala)-(D-Thr)-(D-His)-(D-Glu)-NH2] (Ac-[dC](X2)[dA][dA][dA][dT][dH][dE]-NH2)	–	–	–	–	substantially higher	substantially higher	–	very high fluorescence contrast

From US10994017B2, “Nerve labeling compositions and uses thereof” (Avelas Biosciences, Inc., priority 2016, dated 2021)
